Values quoted from earlier work as cited in patent US20170001953A1, “FUMARATE COMPOUNDS, PHARMACEUTICAL COMPOSITIONS THEREOF, AND METHODS OF USE” (priority 2015, published 2017).

For COC(=O)/C=C/C(=O)OC [DMF, dimethylfumarate], the aqueous solubility is given as “poor”.
